Tests used:
[1] = system: human feces #1 to #3 (human fecal-derived gut microbiota); assay: NMN production by human fecal cultures in GAM evaluation medium with 0.5% carbohydrate (Test Example 2); assay type: cell-based; conditions: 37 °C, anaerobic, 12 hours; for NMN concentration in culture (FIG. 2), in words: average of human feces #1 to #3; for NMN Concentration (Avg Value): GAM medium, average of human feces #1 to #3, only substance of its classification
Procedure: 1 mg of human feces (#1 to 3) collected from different individuals was added to 1 mL of GAM medium supplemented with glucose SO that the final concentration was 0.5%, and cultured at 37 °C in an anaerobic glove box for 12 hours, and then the NMN concentration in the culture solution was measured. As the GAM medium, GAM semi-fluid medium for saccharolysis (manufactured by Nissui Pharmaceutical Co., Ltd.) was dissolved in water to a predetermined concentration, filtered through a 0.8 μm filter, and autoclaved at 115 °C for 15 minutes. The NMN concentration was measured by the following method. That is, first, the supernatant obtained by centrifuging the culture solution was filtered through a 0.22 μm filter, and then the filtrate was mixed with methanol (final concentration: 80 v/v %) and allowed to stand on ice for 30 minutes. Next, the supernatant obtained by centrifuging this was dried using a centrifugal evaporator. Next, the obtained dried product was dissolved in an ammonium acetate solution and subjected to a liquid chromatograph mass spectrometer (LC-MS/MS) for analysis under the following conditions to measure the NMN concentration. (LC-MS/MS analysis conditions)
First, each evaluation medium was prepared by adding any one of the carbohydrates shown in Table 1 below to the GAM medium (without glucose added) so that the final concentration was 0.5%. As a comparative example, an evaluation medium to which distilled water (DW) was added instead of carbohydrate was also prepared. Next, 1 mg of the same human feces #1 to #3 as in Test Example 1 was added to 1 mL of the evaluation medium, and cultured at 37 °C in an anaerobic glove box for 12 hours. After culturing, the NMN concentration in the culture solution was measured by liquid chromatograph mass spectrometer (LC-MS/MS) by the method described in Test Example 1.

[2] = system: inflammatory bowel disease; conditions: in vivo; cited from earlier work
[3] = system: human gut microbiota in human flora mice; assay: NMN concentration in feces of human flora mice given kestose (Test Example 4); assay type: in vivo; conditions: 5% kestose aqueous solution ad libitum
Procedure: 1 mg of human feces (#1 to 3) collected from different individuals was added to 1 mL of GAM medium supplemented with glucose SO that the final concentration was 0.5%, and cultured at 37 °C in an anaerobic glove box for 12 hours, and then the NMN concentration in the culture solution was measured. As the GAM medium, GAM semi-fluid medium for saccharolysis (manufactured by Nissui Pharmaceutical Co., Ltd.) was dissolved in water to a predetermined concentration, filtered through a 0.8 μm filter, and autoclaved at 115 °C for 15 minutes. The NMN concentration was measured by the following method. […]
Using kestose (manufactured by Meiji Food Materia Co., Ltd.), the effect of improving NMN production in the intestine (large intestine) of human flora mice, which were germ-free mice transplanted with human gut microbiota, was evaluated. […] Next, the mixed supernatant was dried using a centrifugal evaporator, the obtained dried product was dissolved in an ammonium acetate solution, filtered through a 0.22 μm filter, and then the NMN concentration in the filtrate was measured by liquid chromatograph mass spectrometer (LC-MS/MS) by the method described in Test Example 1 to calculate the NMN concentration (ng/mL) in the feces.

[4] = cited from earlier work
[5] = NMN administration; cited from earlier work
aged mice [6] = conditions: cited from earlier work
aged mice [7] = conditions: cited from earlier work; remark: listed apart in the source
[8] = system: mice with type II diabetes; conditions: type II diabetes induced by a high-fat diet; cited from earlier work

Compound: CC(=O)N[C@H]1[C@H]([C@H](O)[C@H](O)CO)O[C@@](O[C@H]2[C@@H](O)[C@@H](CO)O[C@@H](O[C@H]3[C@H](O)[C@@H](O)C(O)O[C@@H]3CO)[C@@H]2O)(C(=O)O)C[C@@H]1O (some centres unmarked) [sialyllactose, 3′-Sialyllactose]
- NMN concentration in culture (FIG. 2), in words [1]: relatively low NMN concentration

Compound: OC[C@H]1O[C@@H](O[C@H]2[C@H](O)[C@@H](O)C(O)O[C@@H]2CO)[C@H](O)[C@@H](O)[C@@H]1O (stereo partly drawn) [cellobiose, D-Cellobiose]
- NMN concentration in culture (FIG. 2), in words [1]: higher NMN concentrations than glucose and sucrose

Compound: NC(=O)c1ccc[n+]([C@@H]2O[C@H](COP(=O)([O-])OP(=O)(O)OC[C@H]3O[C@@H](n4cnc5c(N)ncnc54)[C@H](O)[C@@H]3O)[C@@H](O)[C@H]2O)c1 [NAD, nicotinamide adenine dinucleotide]
- effect in improving inflammatory bowel disease [2]: effective in improving inflammatory bowel disease

Compound: inulin
- NMN Concentration (Avg Value) [1]: 70 ng/mL

Compound: OC[C@H]1O[C@@H](O[C@H]2[C@H](O)[C@@H](O)[C@@H](O[C@]3(CO)O[C@H](CO)[C@@H](O)[C@@H]3O)O[C@@H]2CO)[C@H](O)[C@@H](O)[C@H]1O [lactosucrose, Lactosucrose]
- NMN concentration in culture (FIG. 2), in words [1]: higher NMN concentrations than glucose and sucrose

Compound: OC[C@H]1O[C@@](CO)(OC[C@@]2(O[C@H]3O[C@H](CO)[C@@H](O)[C@H](O)[C@H]3O)O[C@H](CO)[C@@H](O)[C@@H]2O)[C@@H](O)[C@@H]1O [kestose, 1-Kestose]
- NMN concentration in culture (FIG. 2), in words [1]: higher NMN concentrations than glucose and sucrose
- amount of NMN produced by human gut microbiota in vivo [3]: increases the amount of NMN produced by human gut microbiota in vivo
- NMN concentration in feces vs Day 0 ([3]; Day 1, 3, and 9 (FIG. 4)): higher on Day 1, 3, and 9

Compound: OC[C@H]1O[C@@](CO)(O[C@H]2O[C@H](CO)[C@@H](O)[C@H](O)[C@H]2O)[C@@H](O)[C@@H]1O [sucrose, D-Sucrose]
- decomposition and absorption in the upper digestive tract in vivo [4]: decomposed and absorbed in the upper digestive tract in vivo

Compound: O=C[C@H](O)[C@@H](O)[C@H](O)CO [xylose]
- absorption in the small intestine [4]: completely absorbed into the body in the small intestine

Compound: NC(=O)c1ccc[n+]([C@@H]2O[C@H](COP(=O)([O-])O)[C@@H](O)[C@H]2O)c1 [NMN, β-nicotinamide mononucleotide]
- age-related declines in organ function and dementia of the Alzheimer type [5]: improved age-related declines in liver function, renal function, skeletal muscle function, and cardiac function, as well as dementia of the Alzheimer type
- effects of NMN administration in aged mice (aged mice [6]): suppressed age-related obesity, improved energy metabolism, and improved insulin resistance, lipid metabolism, eye function, bone density, and immune function
- age-related changes in gene expression (aged mice [6]; skeletal muscle, fat, and liver): suppression of age-related changes in gene expression in skeletal muscle, fat, and liver
- constipation (aged mice [7]): improved constipation
- gene expression related to oxidative stress, inflammatory response, and circadian rhythm [8]: restored gene expression related to oxidative stress, inflammatory response, and circadian rhythm
- glucose tolerance, hepatic insulin sensitivity [8]: improved glucose tolerance disorder and hepatic insulin sensitivity

Compound: O=C[C@H](O)[C@@H](O)[C@H](O)[C@H](O)CO [glucose, D-Glucose]
- absorption in the small intestine [4]: completely absorbed into the body in the small intestine
- decomposition and absorption in the upper digestive tract in vivo [4]: decomposed and absorbed in the upper digestive tract in vivo

Compound: OC[C@H]1O[C@H](OC[C@H]2O[C@H](O[C@]3(CO)O[C@H](CO)[C@@H](O)[C@@H]3O)[C@H](O)[C@@H](O)[C@@H]2O)[C@H](O)[C@@H](O)[C@H]1O [raffinose, Raffinose]
- NMN concentration in culture (FIG. 2), in words [1]: higher NMN concentrations than glucose and sucrose

Compound: O=C(CO)[C@@H](O)[C@@H](O)[C@H](O)CO [Tagatose, D-Tagatose]
- NMN Concentration (Avg Value) [1]: 100 ng/mL

— patent US20260335345A1, “COMPOSITION FOR IMPROVING NICOTINAMIDE MONONUCLEOTIDE PRODUCTION” (MEIJI HOLDINGS CO., LTD., priority 2022, published 2026)
